Where a name gives a salt, the structure may show the parent alone.
Key:
[1] = biological target: T1, dipeptidyl peptidase-IV enzyme (DPP-4) (Homo sapiens, UniProt P27487); experiment: DPP-4 inhibition, continuous fluorometric assay with substrate Gly-Pro-AMC; assay type: biochemical; settings: soluble human DPP-4, 50 μM Gly-Pro-AMC, pH 7.5, room temperature
T1 construct: The enzyme used in these studies was soluble (transmembrane domain and cytoplasmic extension excluded) human protein; made in house; host or cells: baculovirus expression system (Bac-To-Bac, Gibco BRL)
Procedure: Inhibition constants are determined as follows. A continuous fluorometric assay is employed with the substrate Gly-Pro-AMC, which is cleaved by DPP-4 to release the fluorescent AMC leaving group. […] A typical reaction contains approximately 50 pM enzyme, 50 μM Gly-Pro-AMC, and buffer (100 mM HEPES, pH 7.5, 0.1 mg/mL BSA) in a total reaction volume of 100 μL. Liberation of AMC is monitored continuously in a 96-well plate fluorometer using an excitation wavelength of 360 nm and an emission wavelength of 460 nm. Under these conditions, approximately 0.8 μM AMC is produced in 30 min at 25 degrees C. The enzyme used in these studies was soluble (transmembrane domain and cytoplasmic extension excluded) human protein produced in a baculovirus expression system (Bac-To-Bac, Gibco BRL). […] To measure the dissociation constants for compounds, solutions of inhibitor in DMSO were added to reactions containing enzyme and substrate (final DMSO concentration is 1%). All experiments were conducted at room temperature using the standard reaction conditions described above. To determine the dissociation constants (Ki), reaction rates were fit by non-linear regression to the Michaelis-Menton equation for competitive inhibition. The errors in reproducing the dissociation constants are typically less than two-fold.

[2] = system: cardiac allograft survival; settings: rats; survival from day 7 to day 14; Transplantation 63:1495-1500 (1997); cited from earlier work
[3] = system: hematopoiesis; settings: mouse, cyclophosphamide-induced neutropenia; WO 99/56753; cited from earlier work
[4] = biological target: DPP-4 (Homo sapiens, UniProt P27487); settings: cited from earlier work
DPP-4, sequence (P27487 39-766 limits assumed, species assumed): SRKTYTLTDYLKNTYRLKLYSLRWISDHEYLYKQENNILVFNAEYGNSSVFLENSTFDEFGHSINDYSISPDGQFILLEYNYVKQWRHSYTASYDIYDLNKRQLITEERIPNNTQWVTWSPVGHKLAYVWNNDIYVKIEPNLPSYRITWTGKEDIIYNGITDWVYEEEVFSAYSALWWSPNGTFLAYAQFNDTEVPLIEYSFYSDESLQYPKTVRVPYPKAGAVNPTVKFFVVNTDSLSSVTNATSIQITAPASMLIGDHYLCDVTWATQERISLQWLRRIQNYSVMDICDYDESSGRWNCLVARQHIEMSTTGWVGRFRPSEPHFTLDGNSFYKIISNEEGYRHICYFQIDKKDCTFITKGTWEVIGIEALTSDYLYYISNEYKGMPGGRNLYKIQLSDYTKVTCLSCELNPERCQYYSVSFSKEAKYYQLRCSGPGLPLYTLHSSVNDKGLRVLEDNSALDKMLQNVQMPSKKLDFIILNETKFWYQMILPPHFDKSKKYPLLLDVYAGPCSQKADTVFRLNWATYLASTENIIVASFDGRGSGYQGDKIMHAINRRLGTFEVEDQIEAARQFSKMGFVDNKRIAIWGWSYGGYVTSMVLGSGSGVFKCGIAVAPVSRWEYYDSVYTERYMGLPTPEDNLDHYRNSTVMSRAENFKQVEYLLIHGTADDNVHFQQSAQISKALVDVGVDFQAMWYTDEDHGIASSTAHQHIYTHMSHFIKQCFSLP

T1 sequence (P27487 29-766 limits assumed): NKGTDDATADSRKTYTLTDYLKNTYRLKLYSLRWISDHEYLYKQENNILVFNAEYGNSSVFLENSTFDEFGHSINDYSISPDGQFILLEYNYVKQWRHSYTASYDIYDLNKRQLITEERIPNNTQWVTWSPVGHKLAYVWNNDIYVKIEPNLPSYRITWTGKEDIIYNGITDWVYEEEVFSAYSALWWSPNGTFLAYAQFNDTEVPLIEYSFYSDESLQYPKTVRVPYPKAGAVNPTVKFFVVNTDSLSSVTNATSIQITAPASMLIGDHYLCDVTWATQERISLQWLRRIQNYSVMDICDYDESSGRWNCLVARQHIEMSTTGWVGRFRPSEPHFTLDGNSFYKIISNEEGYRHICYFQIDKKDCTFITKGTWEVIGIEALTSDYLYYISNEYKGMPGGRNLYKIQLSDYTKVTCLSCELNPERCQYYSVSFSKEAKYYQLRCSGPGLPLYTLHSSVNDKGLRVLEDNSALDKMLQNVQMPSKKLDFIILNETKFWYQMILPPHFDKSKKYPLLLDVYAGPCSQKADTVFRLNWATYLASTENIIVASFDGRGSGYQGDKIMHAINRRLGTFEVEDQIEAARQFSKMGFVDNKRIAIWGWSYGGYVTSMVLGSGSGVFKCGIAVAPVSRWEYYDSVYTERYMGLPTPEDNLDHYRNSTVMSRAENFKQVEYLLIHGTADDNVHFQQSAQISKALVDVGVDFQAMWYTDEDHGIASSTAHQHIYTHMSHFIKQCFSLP

| Compound | IC50 [1] | also measured |
| --- | --- | --- |
| NC(=O)Cn1cc2c(n1)CN([C@H]1CO[C@H](c3cc(F)ccc3F)[C@@H](N)C1)C2 [Example 1, 2-{5-[(3R,5S,6R)-5-amino-6-(2,5-difluorophenyl)tetrahydro-2H-pyran-3-yl]-5,6-dihydropyrrolo[3,4-c]pyrazol-2(4H)-yl}acetamide] | 6.8 nM | – |
| COC(=O)Cn1cc2c(n1)CN([C@H]1CO[C@H](c3cc(F)ccc3F)[C@@H](N)C1)C2 [Example 2, Methyl {5-[(3R,5S,6R)-5-amino-6-(2,5-difluorophenyl)tetrahydro-2H-pyran-3-yl]-5,6-dihydropyrrolo[3,4-c]pyrazol-2(4B)-yl}acetate] | 8.1 nM | – |
| N[C@H]1C[C@@H](N2Cc3cn(CC(=O)O)nc3C2)CO[C@@H]1c1cc(F)ccc1F [Example 3, {5-[(3R,5S,6R)-5-amino-6-(2,5-difluorophenyl)tetrahydro-2H-pyran-3-yl]-5,6-dihydropyrrolo[3,4-c]pyrazol-2(4H)-yl}acetic acid hydrochloride salt] | 9.4 nM | – |
| N[C@H]1C[C@@H](N2Cc3cn(CCO)nc3C2)CO[C@@H]1c1cc(F)ccc1F [Example 4, 2-{5-[(3R,5S,6R)-5-amino-6-(2,5-difluorophenyl)tetrahydro-2H-pyran-3-yl]-5,6-dihydropyrrolo[3,4-c]pyrazol-2(4H)-yl}ethanol] | 11 nM | – |
| CC(C)(O)Cn1cc2c(n1)CN([C@H]1CO[C@H](c3cc(F)ccc3F)[C@@H](N)C1)C2 [Example 5, 1-{5-[(3R,5S,6R)-5-amino-6-(2,5-difluorophenyl)tetrahydro-2H-pyran-3-yl]-5,6-dihydropyrrolo[3,4-c]pyrazol-2(4H)-yl}-2-methylpropan-2-ol] | 9.3 nM | – |
| CC(C)(O)Cn1ncc2c1CN([C@H]1CO[C@H](c3cc(F)ccc3F)[C@@H](N)C1)C2 [Example 6, 1-{5-[(3R,5S,6R)-5-amino-6-(2,5-difluorophenyl)tetrahydro-2H-pyran-3-yl]-5,6-dihydropyrrolo-[3,4-c]pyrazol-1(4H)-yl}-2-methylpropan-2-ol] | 4 nM | – |
| NC(=O)Cn1ncc2c1CN([C@H]1CO[C@H](c3cc(F)ccc3F)[C@@H](N)C1)C2 [Example 7] | 7.5 nM | – |
| NC(=O)Cn1cc2c(n1)CN([C@H]1CO[C@H](c3cc(F)c(F)cc3F)[C@@H](N)C1)C2 [Example 8] | 8.9 nM | – |
| NC(=O)Cn1ncc2c1CN([C@H]1CO[C@H](c3cc(F)c(F)cc3F)[C@@H](N)C1)C2 [Example 9] | 7.4 nM | – |
| COC(=O)Cn1cc2c(n1)CN([C@H]1CO[C@H](c3cc(F)c(F)cc3F)[C@@H](N)C1)C2 [Example 10] | 12 nM | – |
| CC(C)(O)Cn1ncc2c1CN([C@H]1CO[C@H](c3cc(F)c(F)cc3F)[C@@H](N)C1)C2 [Example 12] | 9.2 nM | – |
| N#Cc1[nH]nc2c1CN([C@H]1CO[C@H](c3cc(F)ccc3F)[C@@H](N)C1)C2 [Example 13] | 0.89 nM | – |
| N[C@H]1C[C@@H](N2Cc3n[nH]c(-c4nnn[nH]4)c3C2)CO[C@@H]1c1cc(F)ccc1F [Example 14] | 0.6 nM | – |
| CC(C)N1CCC(c2ccccc2)(c2ccccc2)CC1 [Prodipine, Pro-Pro-diphenyl-phosphonate] | – | cardiac allograft survival [2]: double cardiac allograft survival |
| CC(C)[C@H](N)C(=O)N1CCC[C@H]1B(O)O [Val-Boro-Pro] | – | hematopoiesis [3]: stimulated hematopoiesis |
| diprotin A | – | degradation of GRF in plasma to GRF[3-44] [4]: prevented |
